Experimental data taken from US4468511A, “C-20- And C-23-Modified macrolide derivatives” (Eli Lilly and Company, priority 1983, dated 1984).
Converted amounts (≈) assume the structure as drawn. Like-named read-outs stand apart in the source and are kept apart here.

What was measured:
Pasteurella multocida = assay: Pasteurella infection in one-day old chicks; type: in vivo; conditions: subcutaneous, 30 mg/kg × 2, 1 and 4 hours post-challenge
Procedure: Certain of the formula 1 compounds of this invention have also shown in vivo activity against infections induced by gram-negative bacteria. Table V summarizes the results of tests in which illustrative compounds were evaluated against a Pasteurella infection in one-day old chicks. The compounds were administered parenterally after challenge of the chicks with Pasteurella multocida (0.1 ml of a 10^-4 dilution of a twenty-hour tryptose broth culture of an avian P. multocida given subcutaneously). In these tests, unless indicated otherwise, all non-medicated infected chicks died within 24 hours of Pasteurella challenge. In the tests summarized in Table V, the compounds were administered by subcutaneous injection at a dosage of 30 mg/kg, 1 and 4 hours post-challenge of the chicks with P. multocida.

[1] = system: Staphylococcus epidermidis EPI1; assay: microbe, parasite or virus in culture; type: cell-based; conditions: Staphylococcus epidermidis, EPI1
Procedure: (§1) The MIC's in Table II were determined by standard agar-dilution assays. The MIC's in Table III were obtained using a conventional broth-dilution microtiter test.

[2] = system: Staphylococcus aureus S13E; assay: microbe, parasite or virus in culture; type: cell-based
Procedure: as §1

Escherichia coli EC14 = assay: MIC, standard agar-dilution assay; type: cell-based
Procedure: (§2) Certain of the derivatives are active against some gram-negative bacteria, such as Pasteurella species. The MIC's in Table II were determined by standard agar-dilution assays. The MIC's in Table III were obtained using a conventional broth-dilution microtiter test.

[3] = system: Klebsiella pneumoniae KAE; assay: MIC, standard agar-dilution assay; type: cell-based
In short: (§3)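 Agar plates containing graded compound levels gave the Klebsiella value. Graded broth dilutions in microtiter plates gave the Pasteurella and Mycoplasma values.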

[4] = system: Streptococcus pyogenes 9960; assay: MIC, standard agar-dilution assay; type: cell-based; conditions: 9960
Procedure: as §2

[5] = system: Streptococcus pyogenes C203; assay: MIC, standard agar-dilution assay; type: cell-based
Procedure: as §2

Escherichia coli TEM = assay: MIC, standard agar-dilution assay; type: cell-based
In short: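 Antibacterial activity toward the gram-negative organism Escherichia coli was assessed by conventional agar dilution. The MIC, reported in ug/mL, is the minimum compound concentration on agar that prevents growth.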

[6] = system: Staphylococcus aureus V41; assay: MIC, standard agar-dilution assay; type: cell-based; conditions: Staphylococcus aureus, V41
Procedure: as §2

[7] = system: Klebsiella pneumoniae X26; assay: MIC, standard agar-dilution assay; type: cell-based
In short: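 Two formats were used. Broth dilution in microtiter plates served for Pasteurella and Mycoplasma, while agar dilution served for Klebsiella.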

[8] = system: Streptococcus pneumoniae Park I; assay: MIC, standard agar-dilution assay; type: cell-based
Procedure: as §2

[9] = system: Streptococcus Group D X66; assay: MIC, standard agar-dilution assay; type: cell-based
Procedure: as §2

[10] = system: Staphylococcus aureus X1.1; assay: MIC, standard agar-dilution assay; type: cell-based; conditions: Staphylococcus aureus, X1.1
In short: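 A standard agar-dilution assay was used to test compounds against the Staphylococcus aureus isolate X1.1. Bacterial growth on agar with different compound concentrations was assessed, and the minimum inhibitory concentration was recorded in ug/mL.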

[11] = system: Haemophilus influenzae C.L.; assay: MIC, standard agar-dilution assay; type: cell-based; conditions: agar-dilution; Haemophilus influenzae C.L., Ampicillin-sensitive strain; read-out: MIC
Procedure: as §1

[12] = system: Haemophilus influenzae 76; assay: MIC, standard agar-dilution assay; type: cell-based; conditions: agar-dilution; Haemophilus influenzae 76, Ampicillin-resistant strain; read-out: MIC
Procedure: as §1

[13] = system: Staphylococcus epidermidis EPI2; assay: MIC, standard agar-dilution assay; type: cell-based
Procedure: as §1

[14] = system: Staphylococcus aureus X400; assay: MIC, standard agar-dilution assay; type: cell-based
Procedure: as §1

Mycoplasma gallisepticum = assay: MIC, conventional broth-dilution microtiter test; type: cell-based; conditions: Mycoplasmoides gallisepticum
In short: as §3

Staphylococcus aureus = assay: MIC, conventional broth-dilution microtiter test; type: cell-based
Procedure: as §2

Mycoplasma synoviae = assay: MIC, conventional broth-dilution microtiter test; type: cell-based; conditions: Mycoplasmopsis synoviae
In short: as §3

[15] = system: Mycoplasma gallisepticum 41313; assay: MIC, conventional broth-dilution microtiter test; type: cell-based; conditions: Mycoplasmoides gallisepticum
In short: as §3

[16] = system: Pasteurella multocida 68C; assay: MIC, conventional broth-dilution microtiter test; type: cell-based; conditions: Pasteurella multocida, 68C
In short: as §3

[17] = system: Pasteurella multocida 40G; assay: MIC, conventional broth-dilution microtiter test; type: cell-based; conditions: Pasteurella multocida, 40G
In short: as §3

[18] = system: Pasteurella multocida 60A; assay: MIC, conventional broth-dilution microtiter test; type: cell-based; conditions: Pasteurella multocida, 60A
In short: as §3

[19] = system: Pasteurella hemolytica 23C; assay: MIC, conventional broth-dilution microtiter test; type: cell-based; conditions: Pasteurella, 23C
In short: as §3

[20] = system: Mycoplasma gallisepticum 34159; assay: MIC, conventional broth-dilution microtiter test; type: cell-based; conditions: Mycoplasmoides gallisepticum
In short: as §3

Mycoplasma hyorhinis = assay: MIC, conventional broth-dilution microtiter test; type: cell-based
In short: as §3

[21] = system: Pasteurella multocida 22A; assay: MIC, conventional broth-dilution microtiter test; type: cell-based; conditions: Pasteurella multocida, 22A
In short: as §3

Streptococcus sp. 80 = assay: MIC, conventional broth-dilution microtiter test; type: cell-based
Procedure: as §2

[22] = system: Pasteurella hemolytica 41D; assay: MIC, conventional broth-dilution microtiter test; type: cell-based; conditions: Pasteurella, 41D
In short: as §3

[23] = system: Pasteurella hemolytica 22C; assay: MIC, conventional broth-dilution microtiter test; type: cell-based
In short: as §3

[24] = system: Pasteurella multocida 17E; assay: MIC, conventional broth-dilution microtiter test; type: cell-based; conditions: Pasteurella multocida, 17E
In short: as §3

[25] = system: Streptococcus pyogenes C203; assay: Protection of mice experimentally infected with S. pyogenes C203; type: in vivo;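 also: two doses given 1 and 4 hours after infection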
Procedure: Some of the derivatives of this invention have shown in vivo antimicrobial activity against experimentally-induced infections in laboratory animals. When two doses of test compound were administered to mice experimentally infected with S. pyogenes C203, the activity observed was measured as an ED50 value [effective dose in mg/kg to protect 50% of the test animals: see Warren Wick, et al., J. Bacteriol. 81, 233-235 (1961)].

CCC1OC(=O)CC(O)C(C)C(OC2OC(C)C(O)C(N(C)C)C2O)C(CCOc2ccccc2)CC(C)C(=O)C=CC(C)=CC1CN1CCCCCCC1 (stereo not shown) [Compound 34, 20-O-Phenyl-20-dihydro-23-Octahydroazocin-1-yl-OMT]
Number of Deaths/Number Treated (Pasteurella multocida): 10/10
MIC [1]: 0.25 µg/mL (≈ 0.324 µM)
MIC [2]: 0.25 µg/mL (≈ 0.324 µM)
MIC (Escherichia coli EC14; agar-dilution, Escherichia coli EC14, read-out: MIC): > 128 µg/mL
MIC ([3]; agar-dilution, Klebsiella pneumoniae KAE, read-out: MIC): > 128 µg/mL
MIC [4]: 2 µg/mL (≈ 2.59 µM)
MIC ([5]; agar-dilution, Streptococcus pyogenes C203, read-out: MIC): 0.12 µg/mL (≈ 0.156 µM)
MIC (Escherichia coli TEM; agar-dilution, Escherichia coli TEM, read-out: MIC): 8 µg/mL (≈ 10.4 µM)
MIC [6]: 0.25 µg/mL (≈ 0.324 µM)
MIC ([7]; agar-dilution, Klebsiella pneumoniae X26, read-out: MIC): 8 µg/mL (≈ 10.4 µM)
MIC ([8]; agar-dilution, Streptococcus pneumoniae Park I, read-out: MIC): 0.12 µg/mL (≈ 0.156 µM)
MIC [9]: 2 µg/mL (≈ 2.59 µM)
MIC [10]: 0.25 µg/mL (≈ 0.324 µM)
MIC [11]: 4 µg/mL (≈ 5.19 µM)
MIC [12]: 8 µg/mL (≈ 10.4 µM)
MIC ([13]; agar-dilution, Staphylococcus epidermidis EPI2, read-out: MIC): 0.12 µg/mL (≈ 0.156 µM)
MIC ([14]; agar-dilution, Staphylococcus aureus X400, Methicillin-resistant strain, read-out: MIC): 0.5 µg/mL (≈ 0.648 µM)
MIC (Mycoplasma gallisepticum): 0.097 µg/mL (≈ 0.126 µM)
MIC (Staphylococcus aureus; broth-dilution microtiter, read-out: MIC): 0.39 µg/mL (≈ 0.506 µM)
MIC (Mycoplasma synoviae; broth-dilution microtiter, Mycoplasma synoviae, read-out: MIC): 12.5 µg/mL (≈ 16.2 µM)
MIC ([15]; broth-dilution microtiter, Mycoplasma gallisepticum 41313, Resistant strain, read-out: MIC): 25 µg/mL (≈ 32.4 µM)
MIC [16]: 3.12 µg/mL (≈ 4.05 µM)
MIC [17]: 3.12 µg/mL (≈ 4.05 µM)
MIC [18]: 6.25 µg/mL (≈ 8.11 µM)
MIC [19]: 3.12 µg/mL (≈ 4.05 µM)
MIC ([20]; broth-dilution microtiter, Mycoplasma gallisepticum 34159, Resistant strain, read-out: MIC): 50 µg/mL (≈ 64.8 µM)
MIC (Mycoplasma hyorhinis; broth-dilution microtiter, Mycoplasma hyorhinis, read-out: MIC): 50 µg/mL (≈ 64.8 µM)
MIC [21]: 6.25 µg/mL (≈ 8.11 µM)
MIC (Streptococcus sp. 80; broth-dilution microtiter, Streptococcus sp. 80, read-out: MIC): 0.78 µg/mL (≈ 1.01 µM)
MIC [22]: 3.12 µg/mL (≈ 4.05 µM)
MIC ([23]; broth-dilution microtiter, Pasteurella hemolytica 22C, read-out: MIC): 1.56 µg/mL (≈ 2.02 µM)
MIC [24]: 3.12 µg/mL (≈ 4.05 µM)

CCC1OC(=O)CC(O)C(C)C(OC2OC(C)C(O)C(N(C)C)C2O)C(CCOC(=O)Cc2ccccc2)CC(C)C(=O)C=CC(C)=CC1COC(=O)Cc1ccccc1 (stereo not shown) [Compound 30, 20,23-Di-O-Phenylacetyl-20-dihydro-OMT]
Number of Deaths/Number Treated (Pasteurella multocida): 9/10
ED50 ([25]; C203, po, read-out: ED50 Oral): > 100 mg/kg
ED50 ([25]; C203, sc, read-out: ED50 Subcutaneous): > 30 mg/kg
MIC [1]: 0.25 µg/mL (≈ 0.299 µM)
MIC [2]: 0.25 µg/mL (≈ 0.299 µM)
MIC (Escherichia coli EC14; Escherichia coli, EC14): > 128 µg/mL
MIC ([3]; Klebsiella pneumoniae): > 128 µg/mL
MIC [4]: 0.5 µg/mL (≈ 0.598 µM)
MIC ([5]; Streptococcus pyogenes, C203): 0.25 µg/mL (≈ 0.299 µM)
MIC (Escherichia coli TEM; Escherichia coli): 8 µg/mL (≈ 9.57 µM)
MIC [6]: 0.25 µg/mL (≈ 0.299 µM)
MIC ([7]; Klebsiella pneumoniae, X26): 8 µg/mL (≈ 9.57 µM)
MIC ([8]; Streptococcus pneumoniae): 0.12 µg/mL (≈ 0.144 µM)
MIC [9]: 0.5 µg/mL (≈ 0.598 µM)
MIC [10]: 0.25 µg/mL (≈ 0.299 µM)
MIC ([13]; Staphylococcus epidermidis, EPI2): 0.5 µg/mL (≈ 0.598 µM)
MIC ([14]; Staphylococcus aureus, X400): 0.5 µg/mL (≈ 0.598 µM)
MIC (Mycoplasma gallisepticum): 0.78 µg/mL (≈ 0.933 µM)
MIC (Staphylococcus aureus): 1.56 µg/mL (≈ 1.87 µM)
MIC (Mycoplasma synoviae): 6.25 µg/mL (≈ 7.48 µM)
MIC [15]; 41313: 50 µg/mL (≈ 59.8 µM)
MIC [16]: 6.25 µg/mL (≈ 7.48 µM)
MIC [17]: 6.25 µg/mL (≈ 7.48 µM)
MIC [18]: 6.25 µg/mL (≈ 7.48 µM)
MIC [19]: 6.25 µg/mL (≈ 7.48 µM)
MIC [20]; 34159: 12.5 µg/mL (≈ 15 µM)
MIC (Mycoplasma hyorhinis; Mycoplasma): 50 µg/mL (≈ 59.8 µM)
MIC [21]: 6.25 µg/mL (≈ 7.48 µM)
MIC (Streptococcus sp. 80; Streptococcus, SP.80): 0.39 µg/mL (≈ 0.466 µM)
MIC [22]: 6.25 µg/mL (≈ 7.48 µM)
MIC ([23]; Pasteurella, 22C): 6.25 µg/mL (≈ 7.48 µM)
MIC [24]: 12.5 µg/mL (≈ 15 µM)
